Test results published in patent US6339098B1, “2,1-benzisothiazoline 2,2-dioxides” (American Home Products Corporation, priority 1999, dated 2002).
pIC50: −log10 of the molar value.

Target: T1, human PR (hPR-B) (Homo sapiens, UniProt P06401)
T1 construct: expressed in transfected cells; host or cells: CV-1 cells (electroporation with pLEM-hPR-B and pGL3-2xPRE-luciferase)
T1 sequence (P06401 1-933): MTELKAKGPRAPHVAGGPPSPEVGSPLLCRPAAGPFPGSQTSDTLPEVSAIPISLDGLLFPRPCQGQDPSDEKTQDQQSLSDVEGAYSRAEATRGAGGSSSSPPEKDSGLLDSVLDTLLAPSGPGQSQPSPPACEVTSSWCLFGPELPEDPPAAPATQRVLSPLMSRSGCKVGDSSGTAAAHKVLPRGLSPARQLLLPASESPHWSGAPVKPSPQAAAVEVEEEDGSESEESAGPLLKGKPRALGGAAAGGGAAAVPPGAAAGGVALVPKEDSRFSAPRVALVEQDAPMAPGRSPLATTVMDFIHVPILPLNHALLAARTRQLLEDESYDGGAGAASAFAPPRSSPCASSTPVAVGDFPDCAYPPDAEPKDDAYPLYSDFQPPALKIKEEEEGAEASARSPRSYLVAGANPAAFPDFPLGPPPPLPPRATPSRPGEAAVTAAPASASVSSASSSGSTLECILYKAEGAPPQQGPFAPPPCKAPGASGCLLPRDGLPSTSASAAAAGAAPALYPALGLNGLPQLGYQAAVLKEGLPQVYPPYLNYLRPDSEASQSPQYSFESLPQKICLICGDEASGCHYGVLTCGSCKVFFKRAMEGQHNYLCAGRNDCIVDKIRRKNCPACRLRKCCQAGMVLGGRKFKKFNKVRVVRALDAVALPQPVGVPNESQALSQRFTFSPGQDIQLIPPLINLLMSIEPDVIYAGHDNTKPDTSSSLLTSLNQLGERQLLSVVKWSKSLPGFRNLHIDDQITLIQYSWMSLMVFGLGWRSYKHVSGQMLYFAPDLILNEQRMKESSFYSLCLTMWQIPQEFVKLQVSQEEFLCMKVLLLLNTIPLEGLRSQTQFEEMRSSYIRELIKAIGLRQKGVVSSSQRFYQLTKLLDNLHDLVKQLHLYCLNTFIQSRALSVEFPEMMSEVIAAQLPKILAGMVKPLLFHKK
Test: PRE-luciferase reporter activity in CV-1 cells co-transfected with human PR and PRE-luciferase plasmids (antiprogestational activity)
Type: cell-based
Settings: CV-1 cells co-transfected with hPR-B and PRE-luciferase; in the presence of 3 nM progesterone; 24 h treatment; read-out: IC50 (concentration giving half-maximal decrease in 3 nM progesterone induced PRE-luciferase activity)
Method: The procedure used and results obtained are described in Example 2 below.
Growth medium: DMEM (BioWhittaker) containing 10% (v/v) fetal bovine serum (heat inactivated), 0.1 mM MEM non-essential amino acids, 100 U/ml penicillin, […] streptomycin, and 2 mM GlutaMax (GIBCO, BRL).
Experimental medium: DMEM (BioWhittaker), phenol red-free, containing 10% (v/v) charcoal-stripped fetal bovine serum (heat-inactivated), 0.1 mM MEM non-essential amino acids, 100 U/ml penicillin, […] streptomycin, and 2 mM GlutaMax (GIBCO, BRL).
Stock CV-1 cells were maintained in growth medium. Co-transfection was done using 1.2×10^7 cells, 5 mg pLEM plasmid with hPR-B inserted at Sph1 and BamH1 sites, 10 mg pGL3 plasmid with two PREs upstream of the luciferase sequence, and 50 mg sonicated calf thymus DNA as carrier DNA in […]. Electroporation was carried out at 260 V and […] in a Biorad Gene Pulser II. After electroporation, cells were resuspended in growth medium and plated in 96-well plate at 40,000 cells/well in […]. Following overnight incubation, the medium was changed to experimental medium Cells were then treated with reference or test compounds in experimental medium. Compounds were tested for antiprogestational activity in the presence of 3 nM progesterone. […] Luciferase activity was measured using luciferase reagents from Promega. […]

Question: How did the pIC50 turn out when `O=S1(=O)Nc2ccc(-c3cccc(Cl)c3)cc2C12CCCCC2` [Example 1] was run?
Answer: 6.05
